Publication PMC4682813, “The Aminosteroid Derivative RM-133 Shows In Vitro and In Vivo Antitumor Activity in Human Ovarian and Pancreatic Cancers” (PLoS ONE, 2015)

What was measured:
PANC-1 cells = assay: MTS cell proliferation (viability) assay, PANC-1; type: cell-based; details: Homo sapiens, 72 h incubation
Protocol: Human ovarian (OVCAR-3) and pancreatic (PANC-1) cancer cells were purchased from the American Type Culture Collection (ATCC, Rockville, MD) and maintained in exponential growth in a 5% CO2 humidified atmosphere at 37°C. OVCAR-3 cells were routinely grown in RPMI-1640 medium (Sigma, St. Louis, MO) supplemented with 20% FBS, L-glutamine (2 mM), antibiotics (100 IU penicillin/mL and 100 μg streptomycin/mL), insulin (50 ng/mL), and estradiol (1 nM). For OVCAR-3 cell proliferation assays, the medium used was identical, except for the omission of estradiol. […]
The cell proliferation assay was performed with a colorimetric method using 3-(4,5-dimethylthiazol-2-yl)-5-(3-carboxymethoxyphenyl)2-(4-sulfophenyl)-2H-tetrazolium (MTS) (Cell Titer 96 Aqueous, Promega, Madison, WI). […] MTS is converted to water-soluble colored formazan by dehydrogenases present in metabolically active cells, and therefore, the MTS assay allows the immediate determination of absorbance of the soluble formazan directly in the cell medium and thus the measurement of viable cells. The A 490 of the medium was determined using a 96-well microplate reader INFINITE 200 PRO series (TECAN, Männedorf, Switzerland). The IC50 value of RM-133 was determined for each of the two cell lines using the GraphPad Prism 7 software (GraphPad Software, Inc., San Diego, CA).

[1] = test system: OVCAR-3 tumors xenografted in nu/nu nude mice; assay: OVCAR-3 xenografts using the two selected vehicles; type: in vivo
Description: (§1) All in vivo experiments were approved by our Institutional Animal Care and Use Committee (Comités de protection des animaux de l’Université Laval) and carried out according to the guidelines of the Canadian Council on Animal Care. For xenografts, homozygous ♀ nu/nu nude mice (24–42 days old) were purchased from Charles River Inc. (Saint-Constant, QC, Canada) and housed (four to five) in vinyl micro-isolated ventilated cages, equipped with air lids, which were kept in laminar airflow hoods and maintained under pathogen-limiting conditions. During the acclimatization and study period, the animals were housed under a controlled environment at 22 ± 3°C, with 50 ± 20% relative humidity and light set at 12 h/day (light on at 07:15). Rodent food (Rodent diet #T.2018.15, Harlan Teklad, Madison, WI) and water were provided ad libitum. For nu/nu nude mice, food and water were sterilized prior to dispensing to the animals. Standard Balb/c mice were used for pharmacokinetic studies. Animals were anesthetized with isoflurane and killed by cervical dislocation.
Fourty ♀ nu/nu nude mice (22–24 g) were inoculated with 5×10^6 OVCAR-3 cells per flank, in 30% matrigel-containing culture medium (0.1 mL). After 23 days, tumor-bearing mice were randomized in 4 groups of 8 to 9 mice each. […] Two control mouse groups, each representing 12 tumors, received only the vehicles. As mentioned above, the tumor area was measured twice weekly and body weight monitored.

[2] = test system: PANC-1 tumors xenografted in nu/nu nude mice; assay: PANC-1 xenografts in nude mice; type: in vivo; details: aqueous 0.4% methylcellulose:EtOH (92:8), 240 mg/kg s.c. twice a day every other day
Description: as §1
Twenty female nu/nu nude mice (22–24 g) were inoculated with 5×10^6 PANC-1 cells per flank, in 30% matrigel-containing culture medium (0.1 mL). Ten days after inoculation, tumor-bearing mice were randomized in 2 groups of 10 mice each. […] Mice in the second (control) group (n = 18 tumors) received the vehicle only. As with previous xenografts, the tumor area was measured and mouse body weight monitored.

[3] = Solubility of RM-133 in injection vehicles; type: physicochemical; details: vehicle #5 sunflower oil:tetrahydrofuran (92:8)
Description: Eleven different vehicles were investigated by s.c. injection. These vehicles were formulated as follows: vehicle #1 [propylene glycol:EtOH (92:8)]; vehicle #2 [aqueous 0.4% methylcellulose:EtOH (92:8)]; vehicle #3 [castor oil:EtOH:benzyl alcohol:benzyl benzoate (65:10:10:15)]; vehicle #4 [sunflower oil:EtOH (92:8)]; vehicle #5 [sunflower oil:tetrahydrofuran (92:8)]; vehicle #6 [aqueous 25% β-cyclodextrin:EtOH (92:8)]; vehicle #7 [sesame oil:EtOH:benzyl benzoate:benzyl alcohol:Tween 80 (89.8:7.8:1:1:0.5)]; vehicle #8 [soya oil:EtOH (92:8)]; vehicle #9 [RPMI medium:EtOH (92:8)]; vehicle #10 [saline:dimethyl sulfoxide (DMSO):Tween 80 (89.5:10:0.5)]; and vehicle #11 [saline:benzyl alcohol:carboxymethylcellulose:Tween 80 (98.2:0.9:0.5:0.4)]. The eight vehicles producing the best RM-133 solubility (#1–8) were injected s.c. (0.1 mL) without the test compound (RM-133) for tolerance and behavioral evaluation studies, by observing mice at 0.25, 1, 3, 7, 23, 26, 28, 30, and 96 h post-injection. Finally, RM-133 was injected s.c. once at 120 mg/kg/0.1 mL of the best […] tolerated vehicles (#1,2,4–7) into ♀ Balb/c mice (4 per group), and mice were next monitored with blood collection by cardiac puncture after 3 and 12 h. The plasma concentration of RM-133 was then determined by LC-MS/MS as above.

[4] = sunflower oil:EtOH (92:8), 240 mg/kg s.c. every other day

Question: What does the source list for `C#C[C@]1(O)CC[C@H]2[C@@H]3CC[C@H]4C[C@H](O)[C@@H](N5CCN(C(=O)[C@@H]6CCCN6C(=O)c6ccc7ccccc7n6)CC5)C[C@]4(C)[C@H]3CC[C@@]21C` [RM-133]?
Answer: IC50 (PANC-1 cells): 300 nM; day at which tumor growth became significantly different from control ([1]; aqueous 0.4% methylcellulose:EtOH (92:8), 240 mg/kg s.c. twice a day every other day): 15 days; tumor size relative to its initial value ([1]; aqueous 0.4% methylcellulose:EtOH (92:8), 240 mg/kg s.c. twice a day every other day, end of treatment (35 days)): 78%; OVCAR-3 tumor growth inhibition ([1]; aqueous 0.4% methylcellulose:EtOH (92:8), 240 mg/kg/0.2 mL s.c. twice a day every other day, after 28 days): 100%; abnormal behavior or death ([1]; aqueous 0.4% methylcellulose:EtOH (92:8), 35-day treatment period): neither abnormal behavior nor death; reduction of OVCAR-3 xenograft growth ([1]; methylcellulose-based vehicle, s.c. (abstract)): 122%; body weight, treated vs control [1, 4]: No significant difference; day at which the effect on tumor growth became significant [1, 4]: 28 days; toxicity symptoms during the study or at necropsy [1, 4]: no toxicity symptom; OVCAR-3 tumor growth inhibition ([1]; sunflower oil:EtOH (92:8), 240 mg/kg/0.2 mL s.c. once every other day, end of treatment (40 days)): 100%; tumor growth after treatment was stopped ([1]; sunflower oil:EtOH (92:8), treatment stopped at day 40, no significant difference seven days after termination): tumor growth resumed; apparent toxicity during the experimental period or at necropsy [2]: no apparent toxicity; body weight [2]: not affected; reduction of PANC-1 tumor size progression ([2]; day 22): 75%; reduction of PANC-1 tumor progression ([2]; end of treatment (40 days)): 63%; solubility in vehicle [3]: poorly soluble
